Assay results taken from patent US6605620B1, “Cyclic amine compounds and pharmaceutical composition containing the same” (Kowa Co., Ltd., priority 2001, dated 2003).
Counter-ions that a name gives are not always drawn.

System: U937 cells adhered to HUVEC stimulated by TNFα
Assay: Inhibitory effect on cell adhesion (U937 adhesion to TNFα-stimulated HUVEC)
Assay type: cell-based, human
Settings: for IC50: Homo sapiens, U937 adhesion to TNFα-stimulated HUVEC, fluorescence (PKH2) readout
Experimental: The test was conducted by reference to the method by Ross et al. (J. Biol. Chem., 267 8537-8543 (1992)). More specifically, after human umbilical venous endothelial cells (HUVEC) were cultured on a 48-well plate to confluent growth, TNFα was added thereto. Upon elapsed time of 5 hours after the addition, U937, which was a human monocytic/histocytic cell fluorescence-labeled with PKH2 (product of Sigma-Aldrich Co., Ltd.), was added in a proportion of 1×10^6 cells per well. After the plate was left at rest at room temperature for 1 hour, unadhered U937 was washed out and lysed in 1% Triton X-100 to measure a remaining fluorescence intensity (excitation wavelength: 480 nm; measuring wavelength: 530 nm). HUVEC and U937 were cultured in EGM-2 (product of Sanko Junyaku K. K.) and 10% FCS-containing RPMI1640, respectively. Each test agent was added to HUVEC upon the addition of TNFα and to U937 24 hours prior to the cell adhesion test. The inhibitory activity was calculated out as IC50 value after inhibitory ratio at each concentration of test compounds was determined. The inhibitory ratio was calculated according to the equation […], wherein A is the number of U937 cells adhered to HUVEC stimulated by TNFα when no test agent was added, B is the number of U937 cells adhered to HUVEC not stimulated by TNFα when no test agent was added, and C is the number of U937 cells adhered to HUVEC stimulated by TNFα when the test agent was added. As control compounds, Test Compound 1 described in Japanese Patent Application Laid-Open No. 9-143075 and dilazep described in Japanese Patent Application Laid-Open No. 11-92382 were simultaneously evaluated.

SMILES	IC50 [nM]	inhibitory effect on cell adhesion (result in words) (examined similar to the Test Example 1 procedure, even at a concentration as high as 10 μM)
COc1cc(C(=O)OCCCN2CCCN(CCCOC(=O)c3cc(OC)c(OC)c(OC)c3)CC2)cc(OC)c1OC [Dilazep, dilazep, reference compound]	> 10000	
COc1cc(-c2cc(CN3CC[C@H](N(C)Cc4ccnc(-c5cc(OC)c(OC)c(OC)c5)c4)C3)ccn2)cc(OC)c1OC [Example 3, (3S)-3-[N-Methyl-N-[[2-(3,4,5-trimethoxyphenyl)pyridin-4-yl]methyl]amino]-1-[[2-(3,4,5-trimethoxyphenyl)pyridin-yl]methyl]pirrolidine Tertrahydrochloride]	300	
COc1cc(-c2cc(CNC3CCN(Cc4ccnc(-c5cc(OC)c(OC)c(OC)c5)c4)CC3)ccn2)cc(OC)c1OC [Example 5, 1-[[2-(3,4,5-Trimethoxyphenyl)pyridin-4-yl]methyl]-4-[[2-(3,4,5-trimethoxyphenyl)pyridin-4-yl]methylamino]piperidine Difumalate]	200	
COc1cc(-c2cncc(CN(C)C3CCN(Cc4ccnc(-c5cc(OC)c(OC)c(OC)c5)c4)CC3)c2)cc(OC)c1OC [Example 7, 4-[N-Methyl-N-[[5-(3,4,5-trimethoxyphenyl)pyridin-3-yl]methyl]amino]-1-[[2-(3,4,5-trimethoxyphenyl)pyridin-4-yl]methyl]piperidine Difumarate]	300	
COc1ccc(N(Cc2ccnc(-c3cc(OC)c(OC)c(OC)c3)c2)C2CCN(Cc3ccnc(-c4cc(OC)c(OC)c(OC)c4)c3)CC2)cc1 [Example 10, 4-[N-(4-Methoxyphenyl)-N-[[2-(3,4,5-trimethoxypheny)pyridin-4-yl]methyl]amino]-1-[[2-(3,4,5-trimethoxyphenyl)pyridin-4-yl]methyl]piperidine Trihydrochloride]	40	
COc1ccc(N(Cc2cncc(-c3cc(OC)c(OC)c(OC)c3)c2)C2CCN(Cc3ccnc(-c4cc(OC)c(OC)c(OC)c4)c3)CC2)cc1 [Example 13, 4-[N-(4-Methoxyphenyl)-N-[[5-(3,4,5-trimethoxyphenyl)pyridin-3-yl]methyl]amino]-1-[[2-(3,4,5-trimethoxyphenyl)pyridin-4-yl]methyl]piperidine Trihydrochloride]	30	
COc1cc(-c2cc(CN3CCC(N(Cc4ccccc4)Cc4ccnc(-c5cc(OC)c(OC)c(OC)c5)c4)CC3)ccn2)cc(OC)c1OC [Example 16, 4-[N-Benzyl-N-[[2-(3,4,5-trimethoxyphenyl)pyridin-4-yl]methyl]amino]-1-[[2-(3,4,5-trimethoxyphenyl)pyridin-4-yl]methyl]piperidine Tetrahydrochloride]	300	
COc1cc(-c2cncc(CN(Cc3ccccc3)C3CCN(Cc4ccnc(-c5cc(OC)c(OC)c(OC)c5)c4)CC3)c2)cc(OC)c1OC [Example 19, 4-[N-Benzyl-N-[[5-(3,4,5-trimethoxypheny)pyridin-3-yl]methyl]amino]-1-[[2-(3,4,5-trimethoxyphenyl)pyridin-4-yl]methyl]piperidine Tetrahydrochloride]	300	
COc1cc(OC)cc(N(Cc2ccnc(-c3cc(OC)c(OC)c(OC)c3)c2)C2CCN(Cc3ccnc(-c4cc(OC)c(OC)c(OC)c4)c3)CC2)c1 [Example 23, 4-[N-(3,5-Dimethoxyphenyl)-N-[[2-(3,4,5-trimethoxyphenyl)pyridin-4-yl]methyl]amino]-1-[[2-(3,4,5-trimethoxyphenyl)pyridin-4-yl]methyl]piperidine Trihydrochloride]	30	
COc1cc(-c2cc(CN3CCC(N(Cc4ccnc(-c5cc(OC)c(OC)c(OC)c5)c4)c4ccc5c(c4)OCO5)CC3)ccn2)cc(OC)c1OC [Example 29, 4-[N-(3,4-Methylenedioxyphenyl)-N-[[2-(3,4,5-trimethoxyphenyl)pyridin-4-yl]methyl]amino]-1-[[2-(3,4,5-trimethoxyphenyl)pyridin-4-yl]methyl]piperidine Trihydrochloride]	30	
COc1cc(-c2cc(CN3CCC(N(C)Cc4ccnc(-c5cc(OC)c(OC)c(OC)c5)c4)CC3)ccn2)cc(OC)c1OC [Example 36, 4-[N-Methyl-N-[[2-(3,4,5-trimethoxyphenyl)pyridin-4-yl]methyl]amino]-1-[[2-(3,4,5-trimethoxyphenyl)pyridin-4-yl]methyl]piperidine Tetrahydrochloride]	200	
COc1cc(-c2cc(CN3CCC(N(Cc4ccnc(-c5cc(OC)c(OC)c(OC)c5)c4)c4ccccc4)CC3)ccn2)cc(OC)c1OC [Example 42, 4-[N-Phenyl-N-[[2-(3,4,5-trimethoxyphenyl)pyridin-4-yl]methyl]amino]-1-[[2-(3,4,5-trimethoxyphenyl)pyridin-4-yl]methyl]piperidine Trihydrochloride]	70	
COc1ccc(N(Cc2ccnc(-c3cc(OC)c(OC)c(OC)c3)c2)C2CCN(Cc3cncc(-c4cc(OC)c(OC)c(OC)c4)c3)CC2)cc1 [Example 67, 4-[N-(4-Methoxyphenyl)-N-[[2-(3,4,5-trimethoxyphenyl)pyridin-4-yl]methyl]amino]-1-[[3-(3,4,5-trimethoxyphenyl)pyridin-5-yl]methyl]piperidine Trihydrochloride]	90	
COc1cccc(N(Cc2ccnc(-c3cc(OC)c(OC)c(OC)c3)c2)C2CCN(Cc3ccnc(-c4cc(OC)c(OC)c(OC)c4)c3)CC2)c1 [Example 88, 4-[N-(3-Methoxyphenyl)-N-[[2-(3,4,5-trimethoxyphenyl)pyridin-4-yl]methyl]amino]-1-[[2-(3,4,5-trimethoxyphenyl)pyridin-4-yl]methyl]piperidine Trihydrochloride]	70	
COc1cccc(N(Cc2ccnc(-c3cc(OC)c(OC)c(OC)c3)c2)C2CCN(Cc3cncc(-c4cc(OC)c(OC)c(OC)c4)c3)CC2)c1 [Example 89, 4-[N-(3-Methoxyphenyl)-N-[[2-(3,4,5-trimethoxyphenyl)pyridin-4-yl]methyl]amino]-1-[[3-(3,4,5-trimethoxyphenyl)pyridin-5-yl]methyl]piperidine Trihydrochloride]	90	
COc1cc(-c2cc(CN3CCC(N(Cc4ccnc(-c5cc(OC)c(OC)c(OC)c5)c4)c4ccc(SC)cc4)CC3)ccn2)cc(OC)c1OC [Example 111, 1-[[2-(3,4,5-Trimethoxyphenyl)pyridin-4-yl]methyl]-4-[N-[[2-(3,4,5-trimethoxyphenyl)pyridin-4-yl]methyl]-N-(4-methylthiophenyl)amino]piperidine Trihydrochloride]	80	
COc1cc(-c2cc(CN3CCC(N(Cc4ccnc(-c5cc(OC)c(OC)c(OC)c5)c4)c4ccc(F)cc4)CC3)ccn2)cc(OC)c1OC [Example 157, 4-[N-(4-Fluorophenyl)-N-[[2-(3,4,5-trimethoxyphenyl)pyridin-4-yl]methyl]amino]-1-[[2-(3,4,5-trimethoxyphenyl)pyridin-4-yl]methyl]piperidine Trihydrochloride]	90	
c1cc(CNC2CCN(Cc3ccncc3)CC2)ccn1 [Preparation Example 91, 1-(4-Pycolyl)-4-(4-pycolylamino)piperidine Tetrahydrochloride, reference compound]		inactive
